In BindingDB's records for doi:10.1016/j.chembiol.2008.07.013 (University of Connecticut, 2008):

Molecular target: T1, Dihydrofolate reductase (Candida glabrata (strain ATCC 2001 / BCRC 20586 / JCM 3761 / NBRC 0622 / NRRL Y-65 / CBS 138), UniProt Q6FPH0)
T1 sequence (Q6FPH0 whole entry): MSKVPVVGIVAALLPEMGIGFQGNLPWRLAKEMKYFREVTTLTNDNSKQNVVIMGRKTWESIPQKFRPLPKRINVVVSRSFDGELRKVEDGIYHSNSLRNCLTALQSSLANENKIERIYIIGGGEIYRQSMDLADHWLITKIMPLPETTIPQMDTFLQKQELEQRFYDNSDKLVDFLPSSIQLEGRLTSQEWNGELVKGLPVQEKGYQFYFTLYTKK
Assay: Enzyme Inhibition Assay
Conditions: 25 °C
Excerpt: Enzyme inhibition assay using CgDHFR and hDHFR performed at 25 degree Celsius by monitoring the rate of enzyme-dependent NADPH oxidation at an absorbance of 340 nm over several minutes.

Row | Compound | IC50
1 | COc1cc([C@@H](C#Cc2c(C)nc(N)nc2N)OC)cc(OC)c1OC [JMC517532 Compound 10] | 0.03 µM
2 | COc1ccc(OC)c(CC#Cc2c(C)nc(N)nc2N)c1 [Propargyl-linked, 10] | 0.032 µM
3 | COc1cc(CC#Cc2cnc(N)nc2N)cc(OC)c1OC [JMC517532 Compound 3] | 0.022 µM
4 | COc1cc([C@@H](O)C#Cc2c(C)nc(N)nc2N)cc(OC)c1OC [Propargyl-substituted antifolate, 9] | 0.039 µM
5 | CCc1nc(N)nc(N)c1C#CCc1cc(OC)ccc1OC [5-[3-(2,5-dimethoxyphenyl)prop-1-yn-1-yl]-6-ethylpyrimidine-2,4-diamine] | 0.0082 µM
6 | COc1ccc(OC)c(CC#Cc2cnc(N)nc2N)c1 [5-[3-(2,5-dimethoxyphenyl)prop-1-yn-1-yl]pyrimidine-2,4-diamine] | 0.021 µM
7 | COc1cc(C(C)C#Cc2c(C)nc(N)nc2N)cc(OC)c1OC (configuration not stated) [Propargyl-substituted antifolate, 8] | 0.025 µM
